Read-outs that look alike come from different tables or passages of the source.

The assay can be described thus: Isothermal titration calorimetry (ITC), binding to ganglioside GM1. The note with it: Table 1, pH 7.2, 35° C. Here is the method: Isothermal calorimetric titrations (ITC) were performed with a MicroCal VP-ITC microcalorimeter in pH 7.2 phosphate buffer solution. In individual titrations, 15 μL GM1:DPC 1:5 containing solution was injected from the computer-controlled […] microsyringe at intervals of 300 s into the ligand solution, dissolved in the same buffer as the GM1. All measurements were carried out at 35° C. The ligands concentration in the cell was 15 μM, and the concentration of GM1 in the syringe was 300 μM. Control experiments were performed by injecting GM1 into the cell containing buffer but no ligands Experiments were repeated twice. The experimental data were fitted to the one binding site or two independent sites model (adjustable parameters: ΔHb1, Kd1, n1 and ΔHb2, Kd2, n2) using a nonlinear least-squares procedure. Errors were calculated by jackknife resampling.
Binding of Trp-Tyr-Lys-Tyr-Trp (WYKYW) and analogues to various ganglioside derivatives was tested as described under “Isothermal Titration calorimetry” to explore the specificity of the interaction between WYKYW and GM1. Affinity data for binding between WYKYW and various ganglioside derivatives (FIG. 1), and for binding between various mutated sequences of WYKYW and GM1 (Table 1) were obtained by Isothermal Titration calorimetry as described in Example 1 (General methods).
For orientation: ITC needs no label: the signal is the heat of the interaction.

Setting [1] is: first binding step, read-out: KD1/nM.
The mark [2] stands for this setting: second binding step, read-out: KD2/nM.

For `NCCCC[C@H](NC(=O)[C@H](Cc1ccc(O)cc1)NC(=O)[C@@H](N)Cc1c[nH]c2ccccc12)C(=O)N[C@@H](Cc1ccc(O)cc1)C(=O)N[C@H](Cc1c[nH]c2ccccc12)C(N)=O` [WYKYw], the Kd under setting [1] is 3930 nM.

As for `NCCCC[C@H](NC(=O)[C@H](Cc1ccc(O)cc1)NC(=O)[C@@H](N)Cc1c[nH]c2ccccc12)C(=O)N[C@H](Cc1ccc(O)cc1)C(=O)N[C@@H](Cc1c[nH]c2ccccc12)C(N)=O` [WYKyW], under setting [1], the Kd worked out at 3240 nM.

Turning to `NCCCC[C@@H](NC(=O)[C@H](Cc1ccc(O)cc1)NC(=O)[C@@H](N)Cc1c[nH]c2ccccc12)C(=O)N[C@@H](Cc1ccc(O)cc1)C(=O)N[C@@H](Cc1c[nH]c2ccccc12)C(N)=O` [WYkYW], under setting [1], the Kd is 4520 nM.

`NCCCC[C@H](NC(=O)[C@@H](Cc1ccc(O)cc1)NC(=O)[C@@H](N)Cc1c[nH]c2ccccc12)C(=O)N[C@@H](Cc1ccc(O)cc1)C(=O)N[C@@H](Cc1c[nH]c2ccccc12)C(N)=O` [WyKYW]: the Kd under setting [1] came out at 892 nM.

Regarding `NCCCC[C@H](NC(=O)[C@H](Cc1ccc(O)cc1)NC(=O)[C@H](N)Cc1c[nH]c2ccccc12)C(=O)N[C@@H](Cc1ccc(O)cc1)C(=O)N[C@@H](Cc1c[nH]c2ccccc12)C(N)=O` [wYKYW], the Kd under setting [1] came to 881 nM.

In the case of AYKYW [Ala point mutation of WYKYW], the KD1/nM result (first binding step) is “not fittable”.

As for Trp-Tyr-Lys-β^3-homo-Tyr-Trp [WYKbYW], the Kd by setting is: under setting [1], 40 nM; under setting [2], 1200 nM.

Turning to Trp-β^3-homo-Tyr-Lys-Tyr-Trp [WbYKYW], the Kd under setting [1] stood at 60 nM and the Kd under setting [2] was determined as 1000 nM.

As for WAKYW [Ala point mutation of WYKYW], under setting [1], the Kd worked out at 5760 nM.

On to WYAYW [Ala point mutation of WYKYW], for which the Kd under setting [1] is 10500 nM.

As for WYKAW [Ala point mutation of WYKYW], the Kd under setting [1] is 1690 nM.

Take WYKYA [Ala point mutation of WYKYW]: the Kd under setting [1] worked out at 1060 nM.

Turning to β^3-homo-Trp-Tyr-Lys-Tyr-Trp [bWYKYW], the Kd reads like this: under setting [1], 4.3 nM; under setting [2], 2100 nM.

Source of the values: patent US20220389057A1, “ENDOCYTOSIS ROUTING SEQUENCE PEPTIDE FOR CELL DELIVERY SYSTEMS” (SZEGEDI TUDOMÁNYEGYETEM, priority 2019, published 2022).
